Test results published in US9833497B2, “Human originated EGF domain proteins and use of the same” (CHENGDU SOURCEBIO LIMITED-LIABILITY COMPANY, priority 2013, dated 2017).

Legend:
Type in all cases: cell-based
E. coli DH5α = assay: Antibacterial activity: MIC and growth curve against E. coli DH5α in 96-well plate; conditions: minimal inhibitory concentration against E. coli DH5α; 96-well plate, 5×10^5 CFU/mL, 37° C., judged after 8 h
Summary of the method: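 MIC taken as lowest protein level with no bacterial growth, tracked by A600 every 30 min during 37 °C, 175 rpm culture. Two-fold protein series 50-12.5 μg/mL final, triplicate wells, against 5×10^5 CFU/mL of LB-washed mid-log cells.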

Aeromonas hydrophila = assay: MIC against Gram-negative bacteria: Aeromonas hydrophila; conditions: for MIC (μg/mL) A. hydrophila / MIC: 10 h cultivation at 37° C., A. hydrophila; for MIC A. hydrophila: 96-well plate, 37° C., 10 h
Summary of the method: (§1)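 Bacteria grown in LB at 37° C with shaking to McFarland 0.5, pelleted and resuspended in fresh LB, then seeded at 5×10^5 CFU/mL per well. Purified recombinant human EGF domain proteins were two-fold serially diluted in triplicate and plates shaken at 37° C, 175 rpm. MIC is the lowest protein concentration with no bacterial growth.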

Serratia marcescens = assay: MIC against Gram-negative bacteria: Serratia marcescens; conditions: for MIC (μg/mL) S. marcescens / MIC: 10 h cultivation at 37° C., S. marcescens; for MIC S. marcescens: 96-well plate, 37° C., 10 h
Summary of the method: as §1

Proteus vulgaris = assay: MIC against Gram-negative bacteria: Proteus vulgaris; conditions: for MIC (μg/mL) P. vulgaris / MIC: 10 h cultivation at 37° C., P. vulgaris; for MIC P. vulgaris: 96-well plate, 37° C., 10 h
Summary of the method: as §1

Klebsiella pneumonia = assay: MIC against Gram-negative bacteria: Klebsiella pneumonia; conditions: for MIC (μg/mL) K. pneumonia / MIC: 10 h cultivation at 37° C., K. pneumonia; for MIC K. pneumonia: 96-well plate, 37° C., 10 h
Summary of the method: as §1

E. coli BL21 = assay: MIC against Gram-negative bacteria: E. coli BL21; conditions: for MIC (μg/mL) E. coli BL21 / MIC: 10 h cultivation at 37° C., E. coli BL21; for MIC E. coli BL21: 96-well plate, 37° C., 10 h
Summary of the method: as §1

Proteus mirabilis = assay: MIC against Gram-negative bacteria: Proteus mirabilis; conditions: for MIC (μg/mL) P. mirabilis / MIC: 10 h cultivation at 37° C., P. mirabilis; for MIC P. mirabilis: 96-well plate, 37° C., 10 h
Summary of the method: as §1

Citrobacter diversus = assay: MIC against Gram-negative bacteria: Citrobacter diversus; conditions: for MIC (μg/mL) C. diversus / MIC: 10 h cultivation at 37° C., C. diversus; for MIC C. diversus: 96-well plate, 37° C., 10 h
Summary of the method: as §1

Enterobacter cloacae = assay: MIC against Gram-negative bacteria: Enterobacter cloacae; conditions: for MIC (μg/mL) E. cloacae / MIC: 10 h cultivation at 37° C., E. cloacae; for MIC E. cloacae: 96-well plate, 37° C., 10 h
Summary of the method: as §1

Moraxella catarrhalis = assay: MIC against Gram-negative bacteria: Moraxella catarrhalis; conditions: for MIC (μg/mL) M. catarrhalis / MIC: 10 h cultivation at 37° C., M. catarrhalis; for MIC M. catarrhalis: 96-well plate, 37° C., 10 h
Summary of the method: as §1

Pseudomonas aeruginosa = assay: MIC against Gram-negative bacteria: Pseudomonas aeruginosa; conditions: for MIC (μg/mL) P. aeruginosa / MIC: 10 h cultivation at 37° C., P. aeruginosa; for MIC P. aeruginosa: 96-well plate, 37° C., 10 h
Summary of the method: as §1

Substance: PRT750 (DIDECQVAPGEAPTCDHHCHNHLGGFYCSCRAGYVLHRNKRTCS; listed as Homo sapiens)
- MIC (E. coli DH5α): 25 µg/mL
- MIC (μg/mL) A. hydrophila (Aeromonas hydrophila; 5×10^5 CFU/mL): 25 µg/mL
- MIC (μg/mL) S. marcescens (Serratia marcescens; 5×10^5 CFU/mL): 50 µg/mL
- MIC (μg/mL) P. vulgaris (Proteus vulgaris; 5×10^5 CFU/mL): 12.5 µg/mL
- MIC (μg/mL) K. pneumonia (Klebsiella pneumonia; 5×10^5 CFU/mL): 25 µg/mL
- MIC (μg/mL) E. coli BL21 (E. coli BL21; 5×10^5 CFU/mL): 12.5 µg/mL
- MIC (μg/mL) P. mirabilis (Proteus mirabilis; 5×10^5 CFU/mL): 50 µg/mL
- MIC (μg/mL) C. diversus (Citrobacter diversus; 5×10^5 CFU/mL): 50 µg/mL
- MIC (μg/mL) E. cloacae (Enterobacter cloacae; 5×10^5 CFU/mL): 12.5 µg/mL
- MIC (μg/mL) M. catarrhalis (Moraxella catarrhalis; 5×10^5 CFU/mL): 12.5 µg/mL
- MIC (μg/mL) P. aeruginosa (Pseudomonas aeruginosa; 5×10^5 CFU/mL): 50 µg/mL

Substance: PRT676 (DINECAMPGVCRHGDCLNNPGSYRCVCPPGHSLGPSRTQCI; listed as Homo sapiens)
- MIC (E. coli DH5α): 25 µg/mL
- MIC A. hydrophila (Aeromonas hydrophila; 5×10^5 CFU/mL): 12.5 µg/mL
- MIC S. marcescens (Serratia marcescens; 5×10^5 CFU/mL): 12.5 µg/mL
- MIC P. vulgaris (Proteus vulgaris; 5×10^5 CFU/mL): 50 µg/mL
- MIC K. pneumonia (Klebsiella pneumonia; 5×10^5 CFU/mL): 50 µg/mL
- MIC E. coli BL21 (E. coli BL21; 5×10^5 CFU/mL): 50 µg/mL
- MIC P. mirabilis (Proteus mirabilis; 5×10^5 CFU/mL): 12.5 µg/mL
- MIC C. diversus (Citrobacter diversus; 5×10^5 CFU/mL): 50 µg/mL
- MIC E. cloacae (Enterobacter cloacae; 5×10^5 CFU/mL): 25 µg/mL
- MIC M. catarrhalis (Moraxella catarrhalis; 5×10^5 CFU/mL): 25 µg/mL
- MIC P. aeruginosa (Pseudomonas aeruginosa; 5×10^5 CFU/mL): 12.5 µg/mL

Substance: PRT1008 (ELDACQSQPCHNHGTCTPKPGGFHCACPPGFVGLRCE; listed as Homo sapiens)
- MIC (E. coli DH5α): 50 µg/mL
- MIC (Aeromonas hydrophila): 12.5 µg/mL
- MIC (Serratia marcescens): 25 µg/mL
- MIC (Proteus vulgaris): 50 µg/mL
- MIC (Klebsiella pneumonia): 12.5 µg/mL
- MIC (E. coli BL21): 12.5 µg/mL
- MIC (Proteus mirabilis): 25 µg/mL
- MIC (Citrobacter diversus): 50 µg/mL
- MIC (Enterobacter cloacae): 50 µg/mL
- MIC (Moraxella catarrhalis): 12.5 µg/mL
- MIC (Pseudomonas aeruginosa): 12.5 µg/mL

Substance: PRT713 (GTNVCARDNGGCKQLCLYRGNSRRTCACAHGYLAEDGVTCL; listed as Homo sapiens)
- MIC (E. coli DH5α): 50 µg/mL
- MIC A. hydrophila (Aeromonas hydrophila; 5×10^5 CFU/mL): 12.5 µg/mL
- MIC S. marcescens (Serratia marcescens; 5×10^5 CFU/mL): 50 µg/mL
- MIC P. vulgaris (Proteus vulgaris; 5×10^5 CFU/mL): 12.5 µg/mL
- MIC K. pneumonia (Klebsiella pneumonia; 5×10^5 CFU/mL): 12.5 µg/mL
- MIC E. coli BL21 (E. coli BL21; 5×10^5 CFU/mL): 25 µg/mL
- MIC P. mirabilis (Proteus mirabilis; 5×10^5 CFU/mL): 50 µg/mL
- MIC C. diversus (Citrobacter diversus; 5×10^5 CFU/mL): 50 µg/mL
- MIC E. cloacae (Enterobacter cloacae; 5×10^5 CFU/mL): 50 µg/mL
- MIC M. catarrhalis (Moraxella catarrhalis; 5×10^5 CFU/mL): 12.5 µg/mL
- MIC P. aeruginosa (Pseudomonas aeruginosa; 5×10^5 CFU/mL): 12.5 µg/mL

Substance: PRT164 (YKDPCANVSCLNGATCDSDGLNGTCICAPGFTGEECD; listed as Homo sapiens)
- MIC (E. coli DH5α): 25 µg/mL
- MIC (μg/mL) A. hydrophila (Aeromonas hydrophila; 5×10^5 CFU/mL): 50 µg/mL
- MIC (μg/mL) S. marcescens (Serratia marcescens; 5×10^5 CFU/mL): 12.5 µg/mL
- MIC (μg/mL) P. vulgaris (Proteus vulgaris; 5×10^5 CFU/mL): 50 µg/mL
- MIC (μg/mL) K. pneumonia (Klebsiella pneumonia; 5×10^5 CFU/mL): 12.5 µg/mL
- MIC (μg/mL) E. coli BL21 (E. coli BL21; 5×10^5 CFU/mL): 50 µg/mL
- MIC (μg/mL) P. mirabilis (Proteus mirabilis; 5×10^5 CFU/mL): 12.5 µg/mL
- MIC (μg/mL) C. diversus (Citrobacter diversus; 5×10^5 CFU/mL): 12.5 µg/mL
- MIC (μg/mL) E. cloacae (Enterobacter cloacae; 5×10^5 CFU/mL): 25 µg/mL
- MIC (μg/mL) M. catarrhalis (Moraxella catarrhalis; 5×10^5 CFU/mL): 50 µg/mL
- MIC (μg/mL) P. aeruginosa (Pseudomonas aeruginosa; 5×10^5 CFU/mL): 25 µg/mL

Substance: PRT989 (NIDDCATAVCFHGATCHDRVASFYCACPMGKTGLLCH; listed as Homo sapiens)
- MIC (E. coli DH5α): 50 µg/mL
- MIC (Aeromonas hydrophila): 12.5 µg/mL
- MIC (Serratia marcescens): 25 µg/mL
- MIC (Proteus vulgaris): 12.5 µg/mL
- MIC (Klebsiella pneumonia): 12.5 µg/mL
- MIC (E. coli BL21): 12.5 µg/mL
- MIC (Proteus mirabilis): 12.5 µg/mL
- MIC (Citrobacter diversus): 100 µg/mL
- MIC (Enterobacter cloacae): 12.5 µg/mL
- MIC (Moraxella catarrhalis): 100 µg/mL
- MIC (Pseudomonas aeruginosa): 50 µg/mL

Substance: PRT440 (DVNECRQNVCRPDQHCKNTRGGYKCIDLCPNGMTKAENGTCI; listed as Homo sapiens)
- MIC (E. coli DH5α): 50 µg/mL
- MIC (Aeromonas hydrophila; 5×10^5 CFU/mL): 12.5 µg/mL
- MIC (Serratia marcescens; 5×10^5 CFU/mL): 25 µg/mL
- MIC (Proteus vulgaris; 5×10^5 CFU/mL): 50 µg/mL
- MIC (Klebsiella pneumonia; 5×10^5 CFU/mL): 12.5 µg/mL
- MIC (E. coli BL21; 5×10^5 CFU/mL): 12.5 µg/mL
- MIC (Proteus mirabilis; 5×10^5 CFU/mL): 25 µg/mL
- MIC (Citrobacter diversus; 5×10^5 CFU/mL): 50 µg/mL
- MIC (Enterobacter cloacae; 5×10^5 CFU/mL): 50 µg/mL
- MIC (Moraxella catarrhalis; 5×10^5 CFU/mL): 12.5 µg/mL
- MIC (Pseudomonas aeruginosa; 5×10^5 CFU/mL): 50 µg/mL
